Data on nine compounds can be found in ChEMBL document CHEMBL1128334, “X-ray crystal structure, partitioning behavior, and molecular modeling study of piracetam-type nootropics: insights into the pharmacophore” (J Med Chem, 1995).

The series is described as follows: Partition coefficient (logP). As to conditions: octanol/water. It counts as physicochemical.

As to `O=C1CCCCN1`, the logP (read-out: logP) is -0.47. Turning to `O=C1NCC[C@@H]2CNC(=O)[C@H]12`, where the note is “read-out: logP”, the logP is -1.95. With `O=C1CC2C(=O)NCC2CN1` (stereo in doubt; 2), the logP is -2.11.

In the case of `O=C1CC2C(=O)NCC2CN1` (stereo in doubt; 3), the logP was -2. Take `CCOC(=O)C1CNC(=O)CC1C(=O)OCC` (stereo in doubt; 6): the logP is given as -0.03. For the compound `CCOC(=O)C1CNC(=O)CC1C(=O)OCC` (stereo in doubt; 7), the logP is given as 0.17. Turning to `O=C1CCCN1` [2-PYRROLIDONE], the logP (read-out: logP) is -0.71. Still for that read-out and setting: the value for `NC(=O)CN1CCCC1=O` [PIRACETAM] was -1.54; that for `O=C1CCC2CCC(=O)N12` [ROLZIRACETAM] was -1.11.

Broadly, the logP is a log measure of how a compound divides between an organic and an aqueous phase.
